From patent publication US12097174B2, “Methods and agents that enhance myogenic progenitor cell engraftment” (President and Fellows of Harvard College, priority 2018, dated 2024)
“Also recorded” adds a separate entry of the source.

Legend:
C2C12 cells = test: Calcium imaging in Fura-2, AM treated C2C12 cells (single-cell imaging); format: cell-based, mouse; conditions: 10 μM NFA, 5 μM LPA; 10-20 seconds after loading
Procedure: Fura-2, AM treated C2C12 cells were exposed to 10 μM NFA, 5 μM LPA or DMSO as vehicle control to visualize the effect on intracellular calcium ion concentration using single-cell imaging. […] Scale bar 50 μm.
The ZeMPCs and C2C12 cells were incubated with Fura-2, AM (Thermo Fisher Sci F1225), a cell permeant fluorescent calcium ion indicator, for 45 minutes at 28.5° C. and 37° C., respectively, followed by imaging with Celldiscoverer7 Microscope (Zeiss). 20 seconds after imaging initiation the treatment was added to the cells and continued for a total of 2-3 minutes.

[1] = tested on: Zebrafish myogenic progenitor cells (ZeMPCs); test: Limiting dilution engraftment assay (ELDA): cells treated ex vivo, transplanted into adult zebrafish, imaged at 7 dpt; format: in vivo; conditions: for engraftment efficiency compared with DMSO/vehicle-treated cells: 0.1 μM LPA or 0.3 μM NFA; for engraftment efficiency relative to vehicle-treated controls: 5 μM LPA or 10 μM NFA; for engraftment capacity of transplanted myogenic progenitors in recipient adult zebrafish: 4 hour ex vivo chemical exposure, replicate transplantation
Procedure: Donor cells were derived from embryos that contained a GFP cassette driven by the promoter for mylz2, a muscle-specific structural protein. Recipients were optically clear, immunocompromised adult prkdc−/− zebrafish. To perform a limiting dilution assay, three doses (n=100, 200, and 400 cells) were administered per treatment (n=10 engraftment events per treatment-dose combination). The estimated engrafting cell frequency was calculated using the Extreme Limiting Dilution Analysis (ELDA, Hu et. al. 2009), which provides the most likely estimate (MLE) of engrafting cell frequency.
Given that this group of 230 lipids is too many to be examined in mice, transplantation efficiency was instead examined via limit-dilution assays in 15 recipient zebrafish per compound after a brief (4 hour) ex vivo chemical exposure. Positive hits from this primary screening were rescreened in replicate transplantation experiments incorporating dose response testing.
Lipids are frequently found to enhance cell migration and homeostasis in blood and muscle tissue (Cencetti et al., 2014; Lahvic et al., 2018; Li et al., 2015; Oh et al., 2016), and so it was elected to screen mainly bioactive lipids in efforts to identify compounds that enhance ZeMPCs engraftment efficiency in vivo. Myogenic progenitor cells were treated for 4 hours with one of the 188 unique lipid compounds contained in the ICCB Known Bioactives Library. Compound-treated cells were then harvested and transplanted intramuscularly into both flanks of 5 different casper recipient fish, with transplants performed at each of 3 transplanted cell doses (25, 75 or 150 cells). In these studies, recipient fish received split-dose irradiation of 15 Gy at 2 days and 1 day prior to transplantation to suppress any immune responses to the transplanted cells. Engraftment efficiency was measured by imaging casper recipients at 7 dpt (FIG. 18A). […] For this secondary screening approach, cells were transplanted into prkdc^D3612ls casper fish, which are deficient in mature T and B cells, and assayed engraftment efficiency in the recipient fish 7 days post-transplantation. Two compounds were identified, lysophosphatidic acid (LPA) and niflumic acid (NFA), which increased ZeMPC engraftment efficiency in both of these assay systems (FIG. 12B).
Lipids from the ICCB Known Bioactives Library (enzolifesciences.com/BML-2840/iccb-known-bioactives-library) were diluted at a 1:100 ratio in transplantation media (zESC medium without bFGF and FBS) and added to prewashed in vitro expanded muscle cells. NFA (Cayman and Santa Cruz Biotechnology) and LPA (Cayman and Santa Cruz Biotechnology) were used for the secondary confirmation screening experiments. […] 4- to 8-month-old casper recipients received split-dose irradiation of 15 Gy each, either 2 days or 1 day before transplantation. For LDA screening, cells were transplanted into each side of 5 pre-irradiated casper recipient fish or 5 non-irradiated prkdc-mutant recipient zebrafish. At 7 dpt, the recipients were anaesthetized using a previously described method (Dang et al., 2016) and imaged using a fluorescent stereo microscope (Leica M165 FC). Successful engraftment was defined as the presence of GFP+ fibers. Variation in different experiments is caused by inherent variability in the in vitro ZeMPC derivation procedure, which results in differences in engrafting cell frequency across different derivation attempts. To mitigate the impact of such experimental variation on screening results, only LDA results for cells derived from the same cultures were compared. Comparison to a vehicle-treated experimental control was included in every transplantation experiment. Next, the chemical treated cell potency and vehicle-treated cell potency was measured using the Extreme Limiting Dilution Analysis (ELDA) software (Hu and Smyth, 2009). The ratio of the treated cell potency and vehicle-treated cell potency determine the engraftment efficiency fold increase value.

ZeMPCs = test: RNA sequencing of treated ZeMPCs; format: cell-based, zebrafish
Source text: To gain insight into the mechanisms through which LPA and NFA treatment might enhance donor cell engraftment in vertebrate muscle, RNA sequencing analysis were next performed in treated ZeMPCs and in mouse satellite cells. Comparison of differential gene expression in NFA-treated or LPA-treated cells to vehicle-treated cells indicated upregulation of calcium-dependent genes in response to these compounds in both ZeMPCs (FIG. 21) and mouse satellite cells (FIGS. 15A and 15B).
Isolated mouse muscle satellite cells and ZeMPCs were used to prepare RNA after in vitro chemical treatment. Total RNA was isolated by the micro RNeasy kit (QIAGEN). cDNA was prepared using SMART Seq v4 Ultra Low RNA-Seq kit for 48 reactions (Takara) and a Nextera kit was used for library construction. Sequencing data FASTQ files for samples were processed in tophat-cufflinks workflow in a Linux server operating system to output gene-level abundance estimates and statistical inference as gene-level raw counts. Those raw counts for samples were input into the cuffdiff for differential gene expression analysis. The assigned GEO accession number for the RNA sequencing data is GSE143801.

Compound	intracellular calcium ion concentration (C2C12 cells)	engraftment efficiency compared with DMSO/vehicle-treated cells [1]	engraftment efficiency relative to vehicle-treated controls [1] [times]	engraftment efficiency compared with DMSO treated cells ([1]; 15 uM NFA or 4 uM LPA)	engraftment capacity of transplanted myogenic progenitors in recipient adult zebrafish [1]	engraftment efficiency relative to DMSO-treated cells ([1]; ZeMPCs treated for 1 hour)	engraftment efficiency relative to DMSO-treated cells ([1]; ZeMPCs treated for 2 hours) [times]	engraftment efficiency relative to DMSO-treated cells ([1]; ZeMPCs treated for 4 hours) [times]	expression of calcium-dependent genes vs vehicle-treated cells (ZeMPCs)	engraftment efficiency compared with DMSO treated cells ([1]; 0.3 uM LPA)
O=C(O)c1cccnc1Nc1cccc(C(F)(F)F)c1 [NFA, niflumic acid]	increase	did not change the engraftment efficiency; also recorded: did not alter the engraftment efficiency; also recorded: no difference	2.37	increased engraftment efficiency	increasing the engraftment capacity	did not alter	2.85	2.64	upregulation	
lysophosphatidic acid [LPA]	increase	did not change the engraftment efficiency; also recorded: did not alter the engraftment efficiency; also recorded: did not result in any change	2.34	increased engraftment efficiency	increasing the engraftment capacity	1.11 times	1.72	2.3	upregulation	did not change the engraftment efficiency
